Assay results as given in US5817840A, “Water soluble taxol derivatives” (The Scripps Research Institute, priority 1997, dated 1998).
Where two headings read alike, the source gives them in different places.

How the values were obtained:
[1] = test system: 786-0 (human perirenal cell adenocarci); assay: Cytotoxicity, Example 8; format: cell-based
Description: (§1) Tumor or normal cells were cultured in 96-well plates with the test compound in 200 μl of RPMI supplemented with 10% fetal bovine serum (Hyclone, Salt Lake City, Utah) at 37° C. in a humidified atmosphere containing 5% CO2 in air for 72 hours. Sulforhodamine B dissolved in 1% acetic acid was added, and the plates were incubated for 30 minutes at ambient temperature, washed with 1% acetic acid, and blotted. To the air-dried plates were added 100 μl of […] unbuffered TRIS base (pH 10.5) with shaking. The optical densities of the plates were measured with a microplate reader (Molecular Devices Thermomax) at 540 nm. The concentration of compound required to reduce the absorbance to 50% of control samples was recorded as IC50.
(§2) NHDF: Normal human dermal fibroblast (available from Clouelics Corp., San Diego, Calif.); HLF-1: Normal human diploid lung; W1-38; Normal human diploid lung; CHO; Chinese hamster ovary; SK-MEL-28: Melanoma; CAPAN-1: Pancreatic carcinoma; H322: lung carcinoma; MCF-7; Breast carcinoma; BT-549; Human breast ductal carcinoma; OVCAR-3: Human ovarian carcinoma; HT-29: Human adenocarcinoma, colon; SIHA: Human squamous carcinoma crvx; 786-0: Human perirenal cell adenocarci; PC-3: Human prostate adenocarcinoma; HL-60: Human promyelomic leukemia; MOLT-4: Human T-cell leukemia. All cell lines except NHDF are available from the American Tissue Culture Collection, Rockville, Md.

[2] = test system: BT-549 (human breast ductal carcinoma); assay: Cytotoxicity, Example 8; format: cell-based
Description: as §1, §2

[3] = test system: CAPAN-1 (pancreatic carcinoma); assay: Cytotoxicity, Example 8; format: cell-based; conditions: Homo sapiens
Description: as §1, §2

[4] = test system: CHO (Chinese hamster ovary); assay: Cytotoxicity, Example 8; format: cell-based; conditions: Cricetulus griseus
Description: as §1, §2

H322 (lung carcinoma) [5] = assay: Cytotoxicity, Example 8; format: cell-based
Description: as §1, §2

[6] = test system: HLF-1 (normal human diploid lung); assay: Cytotoxicity, Example 8; format: cell-based
Description: as §1, §2

[7] = test system: HT-29 (human adenocarcinoma, colon); assay: Cytotoxicity, Example 8; format: cell-based
Description: as §1, §2

MCF-7 (breast carcinoma) [8] = assay: Cytotoxicity, Example 8; format: cell-based; conditions: Homo sapiens
Description: as §1, §2

[9] = test system: NHDF (normal human dermal fibroblast); assay: Cytotoxicity, Example 8; format: cell-based
Description: as §1, §2

[10] = test system: OVCAR-3 (human ovarian carcinoma); assay: Cytotoxicity, Example 8; format: cell-based
Description: as §1, §2

[11] = test system: PC-3 (human prostate adenocarcinoma); assay: Cytotoxicity, Example 8; format: cell-based
Description: as §1, §2

[12] = test system: S1HA (human squamous carcinoma crvx); assay: Cytotoxicity, Example 8; format: cell-based
Description: as §1, §2

SK-MEL-28 (melanoma) = assay: Cytotoxicity, Example 8; format: cell-based; conditions: Homo sapiens
Description: as §1, §2

[13] = test system: W1-38 (normal human diploid lung); assay: Cytotoxicity, Example 8; format: cell-based
Description: as §1, §2

NHDF (normal human skin) = assay: Cytotoxicity (sulphorhodamine B), normal cell line, Table 1B; format: cell-based; conditions: 72 h
[14] = test system: RPMI-7666 (normal human PBLs); assay: as above; format: cell-based; conditions: 72 h
[15] = test system: BALB/c 3T3 (normal mouse embryo); assay: as above; format: cell-based; conditions: BALB/c3T3, 72 h
[16] = test system: CHO (Chinese hamster ovary); assay: as above; format: cell-based; conditions: Cricetulus griseus, 72 h
[17] = test system: CHO (normal human mammary); assay: as above; format: cell-based; conditions: Homo sapiens, 72 h
SK (melanoma) = assay: Cytotoxicity (sulphorhodamine B), cancer cell line, Table 1B; format: cell-based; conditions: 72 h
Capan-1 (pancreatic) = assay: as above; format: cell-based; conditions: Homo sapiens, CAPAN-1, 72 h
H322 (lung carcinoma) [18] = assay: as above; format: cell-based; conditions: NCI-H322, 72 h
MCF-7 (breast carcinoma) [19] = assay: as above; format: cell-based; conditions: Homo sapiens, MCF7, 72 h
[20] = test system: BT-549 (breast carcinoma); assay: as above; format: cell-based; conditions: Homo sapiens, BT-549, 72 h
[21] = test system: OVCAR-3 (ovarian carcinoma); assay: as above; format: cell-based; conditions: Homo sapiens, OVCAR-3, 72 h
HT-29 (colon carcinoma) = assay: as above; format: cell-based; conditions: Homo sapiens, HT-29, 72 h
SIHA (cervix carcinoma) = assay: as above; format: cell-based; conditions: Homo sapiens, SiHa, 72 h
[22] = test system: 786-0 (renal cell carcinoma); assay: as above; format: cell-based; conditions: Homo sapiens, 786-0, 72 h
[23] = test system: PC-3 (prostate carcinoma); assay: as above; format: cell-based; conditions: Homo sapiens, 72 h
[24] = test system: HL-60 (promyel carcinoma); assay: as above; format: cell-based; conditions: Homo sapiens, HL-60, 72 h
[25] = test system: MOLT-4 (T-cell leukaemia); assay: as above; format: cell-based; conditions: Homo sapiens, MOLT-4, 72 h
L1210 (mouse leukaemia) = assay: as above; format: cell-based; conditions: L1210, 72 h
[26] = test system: UCLA-P-3 (lung carcinoma); assay: as above; format: cell-based; conditions: Homo sapiens, UCLA P-3, 72 h
[27] = test system: broad spectrum of cell lines; assay: Cytotoxicity against a broad spectrum of cell lines (overall); conditions: three-day exposure; compared with taxol
Description: The protaxols synthesized in this study were tested against a broad spectrum of cell lines ranging from the multiple-drug resistant ovarian (OVCAR-3) to lung (H-322) and leukemia (MOLT-4) cells in order to assess cytotoxicity, cell-type selectivity, and duration of action.
The cytotoxicities were determined using the sulphorhodamine B assay method (Skehan, P. et al. J. Nat. Canc. Inst. 82, 1107 (1990)).

Q: What does the source list for CC(=O)O[C@H]1C(=O)[C@@]2(C)[C@H]([C@H](OC(=O)c3ccccc3)[C@]3(O)C[C@H](OC(=O)[C@H](OC(=O)CSCC(=O)O)[C@@H](NC(=O)c4ccccc4)c4ccccc4)C(C)=C1C3(C)C)[C@]1(OC(C)=O)CO[C@@H]1C[C@@H]2O [Compound 4, 2'-thiodiglycolic taxol]?
A: IC50 ([1]; 786-0, 72 h): 6.3 µM; IC50 ([2]; BT-549, 72 h): 16 µM; IC50 ([3]; CAPAN-1, 72 h): 0.19 µM; IC50 ([4]; 72 h): 50 µM; IC50 (H322 (lung carcinoma) [5]; NCI-H322, 72 h): 3.1 µM; IC50 ([6]; HLF1, 72 h): 3.1 µM; IC50 ([7]; HT-29, 72 h): 0.19 µM; IC50 (MCF-7 (breast carcinoma) [8]; MCF7, 72 h): 100 µM; IC50 ([9]; 72 h): 50 µM; IC50 ([10]; OVCAR-3, 72 h): 0.39 µM; IC50 ([11]; 72 h): 100 µM; IC50 ([12]; 72 h): 50 µM; IC50 (SK-MEL-28 (melanoma); SK-MEL-28, 72 h): 100 µM; IC50 ([13]; W138, 72 h): 13 µM

Q: Which IC50 (NHDF (normal human skin)) does the source give for CC(=O)O[C@H]1C(=O)[C@@]2(C)[C@H]([C@H](OC(=O)c3ccccc3)[C@]3(O)C[C@H](OC(=O)[C@H](OC(=O)OCCS(=O)(=O)c4ccc([N+](=O)[O-])cc4)[C@@H](NC(=O)c4ccccc4)c4ccccc4)C(C)=C1C3(C)C)[C@]1(OC(C)=O)CO[C@@H]1C[C@@H]2O [Compound 9] here?
A: 1 µM

Q: And the IC50 [14]?
A: 100 µM

Q: What about the IC50 [15] of the same compound?
A: 10 µM

Q: And the IC50 [16]?
A: 100 µM

Q: What about the IC50 [17] of the same compound?
A: 100 µM

Q: What about the IC50 (SK (melanoma)) of the same compound?
A: 10 µM

Q: What about the IC50 (Capan-1 (pancreatic)) of the same compound?
A: 1 µM

Q: And the IC50 (H322 (lung carcinoma) [18])?
A: 1 µM

Q: What about the IC50 (MCF-7 (breast carcinoma) [19]) of the same compound?
A: 10 µM

Q: What about the IC50 [20] of the same compound?
A: 0.1 µM

Q: And the IC50 [21]?
A: 1 µM

Q: And the IC50 (HT-29 (colon carcinoma))?
A: 0.1 µM

Q: What about the IC50 (SIHA (cervix carcinoma)) of the same compound?
A: 10 µM

Q: What about the IC50 [22] of the same compound?
A: 1 µM

Q: What about the IC50 [23] of the same compound?
A: 1 µM

Q: And the IC50 [24]?
A: 0.1 µM

Q: What about the IC50 [25] of the same compound?
A: 0.001 µM

Q: What about the IC50 (L1210 (mouse leukaemia)) of the same compound?
A: 1 µM

Q: And the IC50 [26]?
A: < 0.001 µM

Q: What about the “cytotoxicity (in words)” value [27] of the same compound?
A: lower cytotoxicities

Q: With CC(=O)O[C@H]1C(=O)[C@@]2(C)[C@H]([C@H](OC(=O)c3ccccc3)[C@]3(O)C[C@H](OC(=O)[C@H](OC(=O)C[S+]([O-])CC(=O)O)[C@@H](NC(=O)c4ccccc4)c4ccccc4)C(C)=C1C3(C)C)[C@]1(OC(C)=O)CO[C@@H]1C[C@@H]2O (stereo partly shown) [Example 3a] as the compound, how does the IC50 ([1]; 786-0, 72 hours, read-out: IC50) read?
A: 0.15 µM

Q: And the IC50 ([2]; BT-549, 72 hours, read-out: IC50)?
A: 0.098 µM

Q: And the IC50 ([3]; Capan-1, 72 hours, read-out: IC50)?
A: 0.87 µM

Q: What about the IC50 ([4]; CHO, 72 hours, read-out: IC50) of the same compound?
A: 100 µM

Q: What about the IC50 (H322 (lung carcinoma) [5]; NCI-H322, H322, 72 hours, read-out: IC50) of the same compound?
A: 8.3 µM

Q: And the IC50 ([6]; HLF1, HLF-1, 72 hours, read-out: IC50)?
A: 25 µM

Q: And the IC50 ([7]; HT-29, 72 hours, read-out: IC50)?
A: 0.098 µM

Q: And the IC50 (MCF-7 (breast carcinoma) [8]; MCF7, MCF-7, 72 hours, read-out: IC50)?
A: 39.2 µM

Q: What about the IC50 ([9]; 72 hours, read-out: IC50) of the same compound?
A: 50 µM

Q: What about the IC50 ([10]; OVCAR-3, 72 hours, read-out: IC50) of the same compound?
A: 0.098 µM

Q: What about the IC50 ([11]; PC-3, 72 hours, read-out: IC50) of the same compound?
A: 50 µM

Q: What about the IC50 ([12]; S1HA, 72 hours, read-out: IC50) of the same compound?
A: 25 µM

Q: And the IC50 (SK-MEL-28 (melanoma); SK-MEL-28, 72 hours, read-out: IC50)?
A: 100 µM

Q: And the IC50 ([13]; W138, W1-38, 72 hours, read-out: IC50)?
A: 25 µM

Q: Which results are given for CC(=O)O[C@H]1C(=O)[C@@]2(C)[C@H]([C@H](OC(=O)c3ccccc3)[C@]3(O)C[C@H](OC(=O)[C@H](OC(=O)COCC(=O)O)[C@@H](NC(=O)c4ccccc4)c4ccccc4)C(C)=C1C3(C)C)[C@]1(OC(C)=O)CO[C@@H]1C[C@@H]2O [Compound 3]?
A: IC50 ([1]; 786-0, 72 h): 0.153 µM; IC50 ([2]; BT-549, 72 h): 51.4 µM; IC50 ([3]; CAPAN-1, 72 h): 0.098 µM; IC50 ([4]; 72 h): 101 µM; IC50 (H322 (lung carcinoma) [5]; NCI-H322, 72 h): 205 µM; IC50 ([6]; HLF1, 72 h): 59.5 µM; IC50 ([7]; HT-29, 72 h): 0.01 µM; IC50 (MCF-7 (breast carcinoma) [8]; MCF7, 72 h): 357 µM; IC50 ([9]; 72 h): 103 µM; IC50 ([10]; OVCAR-3, 72 h): 0.098 µM; IC50 ([11]; 72 h): 65.1 µM; IC50 ([12]; 72 h): 1120 µM; IC50 (SK-MEL-28 (melanoma); SK-MEL-28, 72 h): 100 µM; IC50 ([13]; W138, 72 h): 51.9 µM

Q: Which IC50 (NHDF (normal human skin)) does the source give for COC(=O)CS(=O)(=O)CC(=O)O[C@@H](C(=O)O[C@H]1C[C@@]2(O)[C@@H](OC(=O)c3ccccc3)[C@@H]3[C@]4(OC(C)=O)CO[C@@H]4C[C@H](O)[C@@]3(C)C(=O)[C@H](OC(C)=O)C(=C1C)C2(C)C)[C@@H](NC(=O)c1ccccc1)c1ccccc1 [Compound 6] here?
A: 1 µM

Q: What about the IC50 [14] of the same compound?
A: 100 µM

Q: And the IC50 [15]?
A: 10 µM

Q: What about the IC50 [16] of the same compound?
A: 100 µM

Q: And the IC50 [17]?
A: 100 µM

Q: What about the IC50 (SK (melanoma)) of the same compound?
A: 10 µM

Q: And the IC50 (Capan-1 (pancreatic))?
A: 0.1 µM

Q: What about the IC50 (H322 (lung carcinoma) [18]) of the same compound?
A: 0.1 µM

Q: What about the IC50 (MCF-7 (breast carcinoma) [19]) of the same compound?
A: 10 µM

Q: And the IC50 [20]?
A: 0.001 µM

Q: What about the IC50 [21] of the same compound?
A: 1 µM

Q: What about the IC50 (HT-29 (colon carcinoma)) of the same compound?
A: 0.1 µM

Q: And the IC50 (SIHA (cervix carcinoma))?
A: 100 µM

Q: And the IC50 [22]?
A: 10 µM

Q: What about the IC50 [23] of the same compound?
A: 1 µM

Q: And the IC50 [24]?
A: 0.1 µM

Q: And the IC50 [25]?
A: 0.1 µM

Q: And the IC50 (L1210 (mouse leukaemia))?
A: 10 µM

Q: And the IC50 [26]?
A: < 0.001 µM

Q: And the “cytotoxicity (in words)” value [27]?
A: lower cytotoxicities
